Assay results from US20140107166A1, “HISTONE DEACETYLASE INHIBITORS AND METHODS OF USE THEREOF” (DANA-FARBER CANCER INSTITUTE, INC., priority 2011, published 2014).

Tested on: HDACs
Experiment: HDAC deacetylase inhibition assay (trypsin-coupled fluorescent substrate)
Assay type: biochemical
Procedure: Selected compounds of the invention were tested for activity against a number of HDACs. The assays were performed substantially as described in PCT Patent Application WO/2008/091349. In brief, a target substrate is incubated with an HDAC or other protein with deacetylase activity in the presence of a test compound. In certain embodiments, the target substrate includes an acetylated lysine residue. Deacetylation of the substrate allows trypsin or another protease to cleave the substrate, thereby releasing a fluorescent probe. Fluorescence can be continuously monitored in order to determine the ability of the test compound to inhibit the deacetylation activity. The HDAC or other enzyme may be purified or used crude in the inventive assay. In certain embodiments, the assay is a cell-free assay.

inhibition of HDAC (result in words): inhibitor of HDAC
Structure (SMILES): CCCCOc1ccc(CC(=O)NO)cc1 [bufexamac]
